Reference: patent US10035820B2, “Compounds which inhibit neuronal exocytosis” (Lubrizol Advanced Materials, Inc., priority 2012, dated 2018)

Test system: human neuroblastoma cell line
Assay: Release of noradrenaline induced by TPA/Ionomycin in a neuroblastoma cell line, quantified by ELISA
Format: cell-based
Conditions: TPA/ION control = 100
Description: The induction of the release of noradrenaline with TPA (12-O-tetradecanoylphorbol-13-acetate)/Ionomycin enables direct measurement of neuronal exocytosis. For the study of the inhibitory effect of the compounds of the invention on the release of noradrenaline, cells of a human neuroblastoma cell line were pre-incubated (1×10^6 cells/well) for 60 minutes with the compound of the invention (1 μM, 10 μM, 100 μM, 500 μM or 1 mM compounds), and afterward the release of noradrenaline was induced. The release of the noradrenaline neurotransmitter was induced by an 8 minute pre-treatment with a solution of 12-O-tetradecanoylphorbol-13-acetate (TPA) 100 nM, which mobilized the intracellular vesicles which contained the neurotransmitter; followed by a 5 minute incubation with TPA/Ionomycin (100 nM/10 μM), which induced the release of the neurotransmitter contained in these vesicles. […] For this, absorbance at 405 nm was measured in Thermo Scientific Multiskan Ascent equipment.
The blocking of the SNARE complex by the compounds of the invention lead to an inhibition of neuronal exocytosis and therefore, a decrease in the levels of released noradrenaline (Table 6).

Question: Which “% RELEASED NORADRENALINE Average” value (1 μM compound) does the source give for Ac-EELKRWM-NH2 [Ac-SEQ ID NO: 116-NH2] here?
Answer: 87.59%

Question: And the “% RELEASED NORADRENALINE Average” value (10 μM compound)?
Answer: 83.30%

Question: What about the “% RELEASED NORADRENALINE Average” value (100 μM compound) of the same substance?
Answer: 62.24%

Question: And the “% RELEASED NORADRENALINE Average” value (500 μM compound)?
Answer: 52.82%

Question: And the “% RELEASED NORADRENALINE Average” value (1000 μM compound)?
Answer: 43.10%

Question: What does the source list for Ac-ENLKRWM-NH2 [Ac-SEQ ID NO: 117-NH2]?
Answer: % RELEASED NORADRENALINE Average (1 μM compound): 87.99%; % RELEASED NORADRENALINE Average (10 μM compound): 83.11%; % RELEASED NORADRENALINE Average (100 μM compound): 70.76%; % RELEASED NORADRENALINE Average (500 μM compound): 58.37%; % RELEASED NORADRENALINE Average (1000 μM compound): 54.64%
